Reference: publication PMC5370276, “Induction of Osteopontin by Dengue Virus-3 Infection in THP-1 Cells: Inhibition of the Synthesis by Brefelamide and Its Derivative” (Frontiers in Microbiology, 2017)

Tests used:
293T cells = assay: Cytotoxicity, CellTiter 96 Aqueous (MTS) cell proliferation assay; type: cell-based, human; conditions: 24 h incubation
THP-1 cells = assay: as above; type: cell-based, human; conditions: 24 h incubation
Description: (§1) Brefelamide, henceforth referred to as compound A ([Kikuchi et al., 2005]), is an aromatic amide isolated from methanol extracts of Dictyostelium brefeldianum and D. giganteum slime mold fruiting bodies; its derivative, henceforth referred to as compound B ([Kikuchi et al., 2005]; [Zhang et al., 2016b]), contains a methyl ether group (-OCH3). Both compounds were dissolved in dimethyl sulfoxide (DMSO) at a concentration of 50 mM and stored at -20°C. Aliquots of the stock solutions were further diluted with appropriate growth medium to the desired concentrations before use. […] THP-1 and 293T cells were seeded in 96-well tissue culture plates at a density of 1.8 × 10^4/well in 90 μl of the appropriate growth medium and incubated for 24 h at 37°C in a humidified 5% CO2 atmosphere. The following day, 10 μl of compounds A and B at concentrations ranging from 0.0001 to 10 mM were added to each well. […] The absorbance at 490 nm was recorded with an ELISA plate reader and the IC50 value was determined by identifying the X-axis value corresponding to one-half of the difference between the maximum and minimum absorbance values using GraphPad Prism v.6 software (GraphPad Inc., San Diego, CA, USA).

DENV-infected 293T cells = assay: Toxicity to DENV-infected 293T cells; type: cell-based, human; conditions: dose-dependent
Description: (§2) THP-1 and 293T cells were seeded in a Nunc cell culture tube and a 12-well cell culture plate, respectively, at 1.8 × 10^5/well. After overnight incubation, cells were washed and incubated with fresh medium containing DENV-3 at an MOI of 0.1 or incubated without virus for 1.5 h. The inoculum was then removed and cells were washed twice with fresh medium, and compounds A and B were added at final concentrations of 3, 10, and 30 μM. […] On day 3 post-infection, culture supernatants and cell lysates were collected. Cell viability was evaluated by Trypan Blue exclusion and DENV copy number was determined by RT-qPCR. OPN mRNA and protein levels were quantified by RT-qPCR and ELISA, respectively.

[1] = system: DENV-infected THP-1 cells; assay: Toxicity to DENV-infected THP-1 cells; type: cell-based, human; conditions: dose-dependent
Description: as §2

OPN mRNA in THP-1 cells = assay: OPN mRNA expression by RT-qPCR in uninfected and DENV-3-infected THP-1 cells; type: cell-based, human; conditions: 72 h
Text: Glyceraldehyde 3-phosphate dehydrogenase (GAPDH) was used as reference gene for normalization of expression levels and was amplified with the following forward and reverse primers: GAPDH-F, 5′-[…]-3′ and GAPDH-R, 5′-[…]-3′. The Taqman probe was as follows: 5′[FAM]–[…]–[BHQ1]3′. A forward and reverse primer set (SPP1-F, 5′-[…]-3′ and SPP1-R, 5′-[…]-3′) and a probe (SPP1-P, 5′-[FAM]–[…] GAAGT–[BHQ1]3′) (Takara Bio) were used to quantify OPN mRNA ([Qin et al., 2015]). The mean fold change in OPN mRNA level was calculated as fold difference = 2^-ΔΔCt.
(§3) Changes in OPN expression in uninfected THP-1 and 293T cell lines in response to treatment with compounds A and B were assessed. Each well in a 12-well tissue culture plate was seeded with 1.8 × 10^5 cells. After overnight incubation, the compounds were added at final concentrations of 3–100 μM. Cells were harvested 3 days later. OPN mRNA and protein levels were quantified by RT-qPCR and ELISA, respectively, to determine the optimal concentration.
THP-1 and 293T cells were seeded in a Nunc cell culture tube and a 12-well cell culture plate, respectively, at 1.8 × 10^5/well. […] Cell viability was evaluated by Trypan Blue exclusion and DENV copy number was determined by RT-qPCR. OPN mRNA and protein levels were quantified by RT-qPCR and ELISA, respectively.

astrocytoma cells = system: astrocytoma cells; set-up: method as in Kikuchi et al., 2005; Honma et al., 2009; conditions: by inhibiting ERK phosphorylation; ref Kikuchi et al., 2005; Honma et al., 2009; cited from earlier work
OPN mRNA in 293T cells = assay: OPN mRNA expression by RT-qPCR in uninfected and DENV-3-infected 293T cells; type: cell-based, human; conditions: uninfected 293T cells, 3-30 μM, 72 h
DENV-3 [2] = assay: DENV RNA copy number by RT-qPCR in infected THP-1 cells; type: cell-based, Dengue virus-3; conditions: 72 h
Description: (§4) Viral copy number in culture supernatants and cell lysates was measured by RT-qPCR as previously described ([Chagan-Yasutan et al., 2013]) using the RNA UltraSense One-Step Quantitative RT-PCR System (Invitrogen, Carlsbad, CA, USA) and Thermal Cycler Dice Real Time System (Takara Bio, Otsu, Japan) according to the manufacturers’ protocols. Primers and hydrolysis probes specific to the 3′ untranslated region of each of the four DENV genotypes have been previously published ([Chagan-Yasutan et al., 2013]). The forward and reverse primers were as follows 5′-[…]-3′ and 5′-[…]-3′ ([Warrilow et al., 2002]). The TaqMan probe was labeled at the 5′ and 3′ ends with a 6-carboxyfluorescein (FAM) reporter and Black Hole quencher (BHQ)-1 (i.e., 5′[FAM]–[…]–[BHQ1]3′). The copy numbers obtained by DENV RT-qPCR were linearly associated with plaque numbers (data not shown).
as §2

[3] = system: Osteopontin (OPN) in 293T cells; assay: OPN protein level in culture supernatant by ELISA, 293T cells; type: cell-based, human
Description: (§5) Osteopontin levels in the cell culture supernatant were quantified using an ELISA kit (R&D Systems, Minneapolis, MN, USA) according to the manufacturer’s instructions and as previously reported ([Chagan-Yasutan et al., 2014]). The supernatant was diluted eightfold for THP-1 cells and two–fourfold for 293T cells, and the final value was calculated as [drawing 1] and was expressed as pg/ml/10^6 cells.
as §3
as §2, with “The inoculum was then removed and cells were washed twice with fresh medium, and compounds A and B were added at final concentrations of 3, 10, and 30 μM.” left out

[4] = system: Osteopontin (OPN) in THP-1 cells; assay: OPN protein level in culture supernatant by ELISA, THP-1 cells; type: cell-based, human
Description: as §5, §3, §2

[5] = Cytotoxicity, CellTiter 96 Aqueous (MTS) cell proliferation assay; type: cell-based, human; conditions: human, THP-1 cells, 24 h incubation
Description: as §1

DENV-3 [6] = assay: DENV RNA copy number by RT-qPCR in infected 293T cells; type: cell-based, Dengue virus-3; conditions: 0.3 μM
Description: as §4
THP-1 and 293T cells were seeded in a Nunc cell culture tube and a 12-well cell culture plate, respectively, at 1.8 × 10^5/well. After overnight incubation, cells were washed and incubated with fresh medium containing DENV-3 at an MOI of 0.1 or incubated without virus for 1.5 h. […] Cell viability was evaluated by Trypan Blue exclusion and DENV copy number was determined by RT-qPCR. OPN mRNA and protein levels were quantified by RT-qPCR and ELISA, respectively.

[7] = DENV-infected THP-1 cells, MOI 0.1, 3 days

Structure (SMILES)	IC50 (293T cells)	IC50 (THP-1 cells)	Toxic concentration (DENV-infected 293T cells)	Toxic concentration [1]	OPN mRNA expression (OPN mRNA in THP-1 cells; DENV-infected THP-1 cells, MOI 0.1, 3-30 μM)	OPN mRNA expression (OPN mRNA in THP-1 cells; uninfected THP-1 cells, 3-30 μM)	Proliferation of astrocytoma cells (astrocytoma cells)	OPN mRNA levels (OPN mRNA in 293T cells)	Suppression of DENV RNA levels relative to the control (DENV-3 [2]; THP-1 cell culture supernatant, 10 μM)	Suppression of DENV RNA levels (DENV-3 [2]; THP-1 cell lysates, 10 μM)	OPN expression (protein, supernatant) ([3]; DENV-infected 293T cells, MOI 0.1, 3 days)	OPN expression (protein, supernatant) ([3]; uninfected 293T cells, 3 days)	OPN level in supernatant after treatment ([4]; DENV-infected THP-1 cells, 10 μM compound, 3 days, infected control 67848.9)	OPN levels in supernatant [4, 7]	OPN levels in supernatant ([4]; uninfected THP-1 cells, 3 days)	IC50 at 24 h [5]	Viral replication (DENV RNA) (DENV-3 [6]; 293T cell lysates)	Viral replication (DENV RNA) (DENV-3 [6]; 293T culture supernatant)	Virus replication (DENV RNA copy number) (DENV-3 [2]; THP-1 culture supernatant, 0.3-1 μM)	OPN production ([3]; DENV-infected 293T cells, 0.3 μM)
Nc1c(Oc2ccc(O)cc2)cccc1C(=O)CCNC(=O)c1ccc(O)cc1 [compound A, Brefelamide]	32.2 µM	102 µM	> 30 µM	> 30 µM	inhibited OPN mRNA expression in a dose-dependent manner	had no effect	suppressed the proliferation	reduced OPN mRNA levels	75%	not lysates	did not inhibit	did not inhibit	12247.9 pg/ml/10^6 cells	dose-dependent reduction	had no effect					
CCC(C)(C)C(=O)O[C@H]1C[C@@H](C)C=C2C=C[C@H](C)[C@H](CC[C@@H]3C[C@@H](O)CC(=O)O3)[C@H]21 [simvastatin, reference compound]														had no effect		14.1 µM	inhibited viral replication	inhibited viral replication	had no effect	suppressed OPN production
